From ChEMBL document CHEMBL5608234, “Heat Shock Protein 90 Interactome-Mediated Proteolysis Targeting Chimera (HIM-PROTAC) Degrading Glutathione Peroxidase 4 to Trigger Ferroptosis” (J Med Chem, 2024)
The source made the active and inactive calls. The rule behind the calls is not given here.

Assays:
HT-1080 = assay: HIM-PROTAC activity at GPX4/HSP90/E3 ligase in CUL3-knockdown human HT-1080 cells assessed as GPX4 degradation at 0.3 to 1 uM incubated for 24 hrs by Western blotting analysis; assay type: cell-based; details: dose 0.3-1 µM
[1] = Drug uptake in human HT-1080 cells at 5 uM incubated for 18 hrs by LC-MS analysis; assay type: ADME, cell-based; details: ht-1080, 18 h

| Compound | Activity (HT-1080) | Drug uptake [1] |
| --- | --- | --- |
| COc1c(C)cnc(Cn2cnc3c(NCCC4CCN(C(=O)Cn5cc(COc6ccc(N(C(=O)CCl)C(C(=O)NCCc7ccccc7)c7cccs7)cc6Cl)nn5)CC4)nc(N)nc32)c1C (configuration not stated) | Active | – |
| COc1c(C)cnc(Cn2cnc3c(NCCOCCOCCOCCn4cc(COc5ccc(N(C(=O)CCl)C(C(=O)NCCc6ccccc6)c6cccs6)cc5Cl)nn4)nc(N)nc32)c1C (configuration not stated) | – | Not Active |
